Here are results for 9 compounds from US11344510B2, “Arylcyclohexylamine derivatives and their use in the treatment of psychiatric disorders” (Gilgamesh Pharmaceuticals, Inc., priority 2019, dated 2022).

Data set [1] addresses T1, dopamine transporter (DAT) (Homo sapiens, UniProt Q01959).
T1 construct: expressed in transfected cells; host or cells: CHO (uptake)
As to the kind of experiment: Fluorescent substrate uptake inhibition, DAT. Type of data set: cell-based. Conditions: for inhibition at 10 µM: CHO cells expressing DAT. On the procedure: (§1) Uptake Inhibition. The ability of test compounds to block monoamine uptake by SERT, NET, DAT, and VMAT2 was determined using the Neurotransmitter Transporter Uptake Assay Kit manufactured by Molecular Devices (Cat #R8173). Briefly, stably transfected cells expressing the MAT of interest (HEK293 cells for SERT and NET; CHO cells for DAT) were grown and plated into 384-well plates at a concentration of 20,000 cells per well. Plates were then incubated for 16-20 h at 37° C. and 5% CO2. The medium was then aspirated and replaced with 25 μL of assay buffer (20 mM HEPES in HBSS, containing 0.1% BSA) containing the test compounds at the appropriate concentrations. Plates were then centrifuged at 300 rpm for 15 s and then incubated at 37° C. for 30 minutes. At this time, 25 μL of the proprietary fluorescent dye solution was added, the plates were incubated at 37° C. for 60 minutes, and then fluorescence was quantified on a plate reader (excitation wavelength=440 nm, emission wavelength=520 nm). The proprietary dye solution contains a mixture of 1) a fluorescent dye that mimics the endogenous substrates of MATs and is thereby actively transported to the intracellular compartment in the absence of an inhibitor and 2) a masking dye that inhibits the fluorescence of dye 1 in the extracellular compartment. Therefore, the overall fluorescence of the system increases as the fluorescent dye is transported into the cells.

A short description of data set [2]: RLM stability (Low Activity). As to conditions: male, Sprague Dawley, rat, liver microsomes, pH 7.4, Condition 1 (Low Activity), 0.50 mg protein/mL. Type of data set: in vitro ADME, Sprague Dawley rats. On the procedure:
(§2) RLM Stability (Low Activity). Pooled RLM from male Sprague Dawley rats (XenoTech R1000) were used. Microsomal incubations were carried out in multi-well plates. Liver microsomal incubation medium consisted of PBS (100 mM, pH 7.4), MgCl2 (1 mM), and NADPH (1 mM), with 0.50 mg of liver microsomal protein per mL. Control incubations were performed by replacing the NADPH-cofactor system with PBS. Test compounds (1 μM, final solvent concentration 1.0%) were incubated with microsomes at 37° C. with constant shaking. Six time points over 60 minutes were analyzed, with 60 μL aliquots of the reaction mixture being drawn at each time point. The reaction aliquots were stopped by adding 180 μL of cold (4° C.) acetonitrile containing 200 ng/mL tolbutamide and 200 ng/mL labetalol as internal standards (IS), followed by shaking for 10 minutes, and then protein sedimentation by centrifugation at 4000 rpm for 20 minutes at 4° C. Supernatant samples (80 μL) were diluted with water (240 μL) and analyzed for parent compound remaining using a fit-for-purpose liquid chromatography-tandem mass spectrometry (LC-MS/MS) method.
(§3) Data Analysis. The elimination constant (kel), half-life (t1/2) and intrinsic clearance (Clint) were determined in a plot of […] versus time, using linear regression analysis.

Data set [3] has as its target MK-801 binding site of the N-methyl-D-aspartate receptor (NMDAR). As to the kind of experiment: NMDAR radioligand binding with [3H]MK-801, Method B. Details: species or system Sprague Dawley rat. As to conditions: MK-801 site, Method B, male Sprague Dawley rat cortex, 5.0 nM [3H]MK-801; read-out: NMDAR Ki ± SEM. On the procedure:
Radioligand Binding—Method B. Affinity of the test compounds for NMDAR was determined in radioligand binding experiments with [^3H]MK-801 by WuXi AppTec (Hong Kong) Limited, under the conditions described in Table 13.

Data set [4] has as its target T2, serotonin transporter (SERT) (Homo sapiens, UniProt P31645).
T2 construct: expressed in transfected cells; host or cells: HEK293
Description: Fluorescent substrate uptake inhibition, SERT. Type of data set: cell-based. Conditions: for inhibition at 10 µM: HEK293 cells expressing SERT. On the procedure: as §1

Data set [5] in a line: HLM stability (Low Activity, Alternative Method). Format: in vitro ADME. As to conditions: both sexes, human, liver microsomes, pH 7.4, Condition 1 column, values marked *: Low Activity, 0.50 mg protein/mL. Here is the method: as §2, with “HLM” for “RLM”, “Activity, Alternative Method).” for “Activity).”, “from adult” for “from”, “and female donors (Corning 452117)” for “Sprague Dawley rats (XenoTech R1000)”
as §3

Data set [6] deals with T3, vesicular monoamine transporter 2 (VMAT2) (Homo sapiens, UniProt Q05940).
T3 construct: expressed in transfected cells
Description: Fluorescent substrate uptake inhibition, VMAT2. Conditions: for inhibition at 10 µM: transfected cells. Type of data set: cell-based. Here is the method:
as §1

The nature of data set [7]: MLM stability (Low Activity). Format: in vitro ADME, CD-1 mice. Conditions: male, CD-1, mouse, liver microsomes, pH 7.4, Condition 1 (Low Activity), 0.50 mg protein/mL. Here is the method:
as §2, with “MLM” for “RLM”, “CD-1 mice” for “Sprague Dawley rats”, “M1000)” for “R1000)”
as §3

The target of data set [8] is T4, norepinephrine transporter (NET) (Homo sapiens, UniProt P23975).
T4 construct: expressed in transfected cells; host or cells: HEK293
Description: Fluorescent substrate uptake inhibition, NET. Type of data set: cell-based. Conditions: for inhibition at 10 µM: HEK293 cells expressing NET. Here is the method:
as §1

T1 sequence (Q01959 whole entry, species assumed): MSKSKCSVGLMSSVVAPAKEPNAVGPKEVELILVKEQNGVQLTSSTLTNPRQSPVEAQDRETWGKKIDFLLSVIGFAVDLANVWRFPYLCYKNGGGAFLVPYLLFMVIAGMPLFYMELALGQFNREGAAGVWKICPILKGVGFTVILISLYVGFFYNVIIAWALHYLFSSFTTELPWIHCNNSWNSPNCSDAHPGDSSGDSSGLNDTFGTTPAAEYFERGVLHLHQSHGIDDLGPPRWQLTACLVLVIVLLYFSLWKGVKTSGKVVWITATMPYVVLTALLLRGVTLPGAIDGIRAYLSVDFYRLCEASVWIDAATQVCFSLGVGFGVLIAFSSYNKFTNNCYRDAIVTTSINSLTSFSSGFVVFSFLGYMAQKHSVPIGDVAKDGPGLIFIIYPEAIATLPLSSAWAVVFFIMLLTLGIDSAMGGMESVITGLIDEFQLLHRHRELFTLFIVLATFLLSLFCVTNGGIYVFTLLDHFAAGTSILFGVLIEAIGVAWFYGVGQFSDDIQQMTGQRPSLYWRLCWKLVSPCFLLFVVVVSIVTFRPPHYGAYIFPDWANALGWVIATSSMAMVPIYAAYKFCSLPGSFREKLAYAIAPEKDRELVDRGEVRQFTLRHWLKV
T4 sequence (P23975 whole entry, species assumed): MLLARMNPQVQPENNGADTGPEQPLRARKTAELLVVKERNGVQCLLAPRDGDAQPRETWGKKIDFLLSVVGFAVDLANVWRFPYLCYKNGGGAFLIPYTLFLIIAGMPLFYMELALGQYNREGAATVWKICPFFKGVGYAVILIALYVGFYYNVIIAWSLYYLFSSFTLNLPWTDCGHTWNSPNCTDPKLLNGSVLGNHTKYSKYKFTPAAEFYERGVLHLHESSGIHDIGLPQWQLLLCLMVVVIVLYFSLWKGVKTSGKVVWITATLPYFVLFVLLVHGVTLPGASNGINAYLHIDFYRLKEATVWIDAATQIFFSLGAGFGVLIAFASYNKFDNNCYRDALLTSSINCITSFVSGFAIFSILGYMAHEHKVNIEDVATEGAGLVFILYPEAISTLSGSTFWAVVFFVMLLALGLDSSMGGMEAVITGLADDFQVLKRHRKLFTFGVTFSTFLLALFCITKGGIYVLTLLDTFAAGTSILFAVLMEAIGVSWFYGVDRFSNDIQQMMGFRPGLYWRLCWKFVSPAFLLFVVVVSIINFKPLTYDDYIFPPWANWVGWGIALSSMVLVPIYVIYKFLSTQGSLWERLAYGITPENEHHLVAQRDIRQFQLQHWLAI
T2 sequence (P31645 whole entry, species assumed): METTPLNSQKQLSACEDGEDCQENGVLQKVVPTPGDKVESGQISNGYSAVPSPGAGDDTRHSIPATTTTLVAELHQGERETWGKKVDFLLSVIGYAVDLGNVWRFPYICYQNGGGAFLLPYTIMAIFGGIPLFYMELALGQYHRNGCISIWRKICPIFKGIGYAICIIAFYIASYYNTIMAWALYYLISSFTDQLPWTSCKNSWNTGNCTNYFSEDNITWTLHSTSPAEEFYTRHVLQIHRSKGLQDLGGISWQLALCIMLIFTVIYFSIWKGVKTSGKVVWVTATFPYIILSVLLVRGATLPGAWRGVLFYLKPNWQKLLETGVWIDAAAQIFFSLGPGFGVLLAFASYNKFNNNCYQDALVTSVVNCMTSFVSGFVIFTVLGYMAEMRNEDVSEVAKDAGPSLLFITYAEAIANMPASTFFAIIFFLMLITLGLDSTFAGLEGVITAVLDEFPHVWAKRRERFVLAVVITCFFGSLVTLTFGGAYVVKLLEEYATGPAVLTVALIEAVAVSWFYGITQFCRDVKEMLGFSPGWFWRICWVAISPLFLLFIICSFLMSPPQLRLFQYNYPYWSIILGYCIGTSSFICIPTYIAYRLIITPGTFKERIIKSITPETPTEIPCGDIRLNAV
T3 sequence (Q05940 whole entry, species assumed): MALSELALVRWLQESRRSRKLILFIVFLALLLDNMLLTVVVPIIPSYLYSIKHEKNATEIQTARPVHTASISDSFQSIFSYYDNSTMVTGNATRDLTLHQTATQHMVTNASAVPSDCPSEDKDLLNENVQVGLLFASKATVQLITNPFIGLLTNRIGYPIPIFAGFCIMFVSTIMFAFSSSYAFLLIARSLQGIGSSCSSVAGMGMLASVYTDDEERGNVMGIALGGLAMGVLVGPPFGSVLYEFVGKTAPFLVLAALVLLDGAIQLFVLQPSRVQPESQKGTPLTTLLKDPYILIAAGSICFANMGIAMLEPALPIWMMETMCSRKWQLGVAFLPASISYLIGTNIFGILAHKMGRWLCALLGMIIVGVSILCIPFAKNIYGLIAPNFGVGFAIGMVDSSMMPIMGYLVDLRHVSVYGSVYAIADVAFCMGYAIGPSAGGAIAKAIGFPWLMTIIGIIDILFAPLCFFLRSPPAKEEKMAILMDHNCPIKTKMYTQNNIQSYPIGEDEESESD

Turning to `CCN(CC)[C@]1(c2ccccc2)CCCCC1=O` [Compound 25S, (S)-2-(diethylamino)-2-phenylcyclohexanone], the inhibition at 10 µM was 24.9% in data set [1], 45.6% in data set [4], 1.7% in data set [6] and -0.13% in data set [8]. The values for the half-life at 1 μM in data set [2], in data set [5] and in data set [7] were 14.5 min, 42 min and 8.6 min, respectively. The values for the intrinsic metabolic clearance (microsomal CLint) at 1 μM in data set [2], in data set [5] and in data set [7] were 95.4 µL/min/mg, 33 µL/min/mg and 161 µL/min/mg, respectively. Also, in data set [3], the inhibitory constant (Ki) is 5.2 µM.

For the compound `O=C1CCCC[C@]1(c1ccccc1)N1CCOCC1` [Compound 31R, (R)-2-morpholino-2-phenylcyclohexan-1-one], the inhibition at 10 µM in data set [1] was 9.8%; in data set [4], -1.2%; in data set [6], -3.4%; in data set [8], 1.3%. Moreover, the half-life at 1 μM amounted to 6.8 min in data set [2], 45.7 min in data set [5] and 11.2 min in data set [7]. Further, the intrinsic metabolic clearance (microsomal CLint) at 1 μM is 204 µL/min/mg in data set [2], 30.3 µL/min/mg in data set [5] and 124 µL/min/mg in data set [7]. Moreover, the inhibition constant Ki in data set [3] is > 23 µM.

As to `CCN(CC)[C@@]1(c2ccccc2)CCCCC1=O` [Compound 25R, (R)-2-(diethylamino)-2-phenylcyclohexanone], the inhibition at 10 µM is 20.8% in data set [1], 26.9% in data set [4], -10.3% in data set [6] and 20.8% in data set [8]. Further, the half-life at 1 μM in data set [2] amounted to 15.3 min; in data set [5], 49 min; in data set [7], 8.5 min. In addition, the microsomal CLint at 1 μM in data set [2] was 90.3 µL/min/mg; in data set [5] it was 28.3 µL/min/mg; in data set [7] it was 163 µL/min/mg. Further, in data set [3], the Ki was found to be 5.5 µM.

For the compound `COCCN[C@@]1(c2ccccc2)CCCCC1=O` [Compound 29R, (R)-2-((2-methoxyethyl)amino)-2-phenylcyclohexan-1-one], the inhibition at 10 µM in data set [1] is -7.1%; in data set [4], 19.6%; in data set [6], -31.9%; in data set [8], -16%. Further, the half-life at 1 μM in data set [2] was 32.2 min; in data set [5], > 145 min; in data set [7], 30.1 min. For the same compound, the figures for the intrinsic metabolic clearance (microsomal CLint) at 1 μM in data set [2], in data set [5] and in data set [7] were 43 µL/min/mg, < 9.6 µL/min/mg and 46.1 µL/min/mg, respectively. Also, the inhibition constant Ki in data set [3] was > 23 µM.

Turning to `O=C1CCCC[C@@]1(c1ccccc1)N1CCCC1` [Compound 27S, (S)-2-phenyl-2-(pyrrolidin-1-yl)cyclohexan-1-one], the 50% inhibitory concentration (IC50) was determined as 10.9 µM in data set [1], 0.041 µM in data set [4], 19.3 µM in data set [6] and 8.5 µM in data set [8]. The half-life at 1 μM in data set [2] is 53.7 min; in data set [5], > 145 min; in data set [7] it was 41 min. The results for the intrinsic metabolic clearance (microsomal CLint) at 1 μM in data set [2], in data set [5] and in data set [7] were 25.8 µL/min/mg, < 9.6 µL/min/mg and 33.8 µL/min/mg, respectively. The Ki in data set [3] came to 1.1 µM.

As for `COCCN[C@]1(c2ccccc2)CCCCC1=O` [Compound 29S, (5)-2-((2-methoxyethyl)amino)-2-phenylcyclohexan-1-one], the inhibition at 10 µM in data set [1] is 13.7%; in data set [4] it was -12.9%; in data set [6] it was -10.5%; in data set [8], 4%. Further, the half-life at 1 μM is 31.8 min in data set [2], > 145 min in data set [5] and 35.7 min in data set [7]. The results for the microsomal CLint at 1 μM in data set [2], in data set [5] and in data set [7] were 43.6 µL/min/mg, < 9.6 µL/min/mg and 35.8 µL/min/mg, respectively. Also, in data set [3], the inhibitory constant (Ki) amounted to 8.2 µM.

`Cc1cccc(C2(N)CCCCC2=O)c1` (racemic) [Compound 118rac, 2-amino-2-(m-tolyl)cyclohexan-1-one]: the inhibition at 10 µM came out at 23.8% in data set [1], 16.9% in data set [4], 36.6% in data set [6] and 19.5% in data set [8]. Moreover, the values for the half-life at 1 μM in data set [2], in data set [5] and in data set [7] were 7.2 min, > 145 min and 84.4 min, respectively. Further, the values for the microsomal CLint at 1 μM in data set [2], in data set [5] and in data set [7] were 192 µL/min/mg, < 9.6 µL/min/mg and 16.4 µL/min/mg, respectively. The Ki in data set [3] is 4.5 µM.

Regarding `CNC1(c2ccc(C)cc2)CCCCC1=O` (racemic) [Compound 119rac, 2-(methylamino)-2-(p-tolyl)cyclohexan-1-one], the inhibition at 10 µM in data set [1] stood at 10.3%; in data set [4] it was 42%; in data set [6], 48.1%; in data set [8], 5%. Also, the half-life at 1 μM in data set [2] was 3.3 min; in data set [5], > 145 min; in data set [7], 75.5 min. The intrinsic clearance (microsomal CLint) at 1 μM was 417 µL/min/mg in data set [2], < 9.6 µL/min/mg in data set [5] and 18.4 µL/min/mg in data set [7]. In data set [3], the Ki turned out to be 16.7 µM.

On to `Cc1ccc(C2(N)CCCCC2=O)cc1` (racemic) [Compound 120rac, 2-amino-2-(p-tolyl)cyclohexan-1-one], for which the inhibition at 10 µM was found to be 5.3% in data set [1], 27.5% in data set [4], 41% in data set [6] and 7.1% in data set [8]. The values for the half-life at 1 μM in data set [2], in data set [5] and in data set [7] were 3.6 min, > 145 min and 112 min, respectively. The microsomal CLint at 1 μM in data set [2] was 380 µL/min/mg; in data set [5], < 9.6 µL/min/mg; in data set [7] it was 12.4 µL/min/mg. Besides, the Ki in data set [3] was found to be 23 µM.
